# System: MV-4-11 cells
# Test: Gene expression microarray analysis (Affymetrix PrimeView) and GSEA
# Assay type: cell-based, human
# Settings: gene VPS36, vacuolar protein sorting 36 homolog; Azacitidine 1 mM; LIST F
structure (smiles),measurement,value
Nc1ncn([C@@H]2O[C@H](CO)[C@@H](O)[C@H]2O)c(=O)n1 [azacitidine],"RFU, VPS36 (ProbeSet 11739960_a_at)",118.04 RFU

# From PMC5218480 (PLoS ONE, 2017)
